From patent US10550105B2 (Ribon Therapeutics Inc., priority 2018, dated 2020)

Key:
interferon-beta (IFN-β) [1] = assay: Induction of interferon-beta levels in CT26 cells in the presence of STING agonist DMXAA (FIG. 3); format: cell-based; conditions: CT26 mouse colon cancer cells
PARP7 [2] = target: T1, PARP7 (Homo sapiens (Human), UniProt Q7Z3E1); assay: Enzymatic assay for inhibition of PARP7: TR-FRET displacement of biotinylated Probe A from the TIPARP active site; format: binding; conditions: Table A-1
T1 sequence (Q7Z3E1 whole entry): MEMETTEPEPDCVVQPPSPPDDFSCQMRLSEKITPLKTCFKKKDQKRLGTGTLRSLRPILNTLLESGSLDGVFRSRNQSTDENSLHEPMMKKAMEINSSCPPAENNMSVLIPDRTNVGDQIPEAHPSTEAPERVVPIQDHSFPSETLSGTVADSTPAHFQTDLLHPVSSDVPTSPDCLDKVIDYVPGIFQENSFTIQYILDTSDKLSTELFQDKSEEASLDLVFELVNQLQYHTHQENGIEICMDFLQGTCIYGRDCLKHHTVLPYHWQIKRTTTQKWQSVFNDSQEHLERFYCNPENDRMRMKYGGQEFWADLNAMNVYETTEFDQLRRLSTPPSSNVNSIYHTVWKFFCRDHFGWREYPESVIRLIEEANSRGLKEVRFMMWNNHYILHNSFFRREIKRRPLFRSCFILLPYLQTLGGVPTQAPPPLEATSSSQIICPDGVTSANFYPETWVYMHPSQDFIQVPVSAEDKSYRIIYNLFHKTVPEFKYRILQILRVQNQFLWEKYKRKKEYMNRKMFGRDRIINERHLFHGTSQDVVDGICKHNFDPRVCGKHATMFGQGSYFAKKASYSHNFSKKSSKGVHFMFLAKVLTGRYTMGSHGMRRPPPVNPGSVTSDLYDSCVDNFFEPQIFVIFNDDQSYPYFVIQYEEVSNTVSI
Outline: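 Displacement of biotinylated Probe A from TIPARP was measured as the 665/615 nm time-resolved FRET ratio (excitation 320 nm, 90 μs delay) after a further 30 min at 25 °C. Inhibition across compound concentrations was fitted by dose-response regression, with the Hill slope free or fixed at 1 (3-parameter fit).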

interferon-beta (IFN-β) [3] = assay: Induction of interferon-beta levels in RAW264.7 macrophages in the presence of STING agonist DMXAA (FIG. 3); format: cell-based; conditions: RAW264.7 mouse macrophages
[4] = system: NCI-H1373 lung cancer cells; assay: Inhibition of cancer cell growth in NCI-H1373 lung cancer cells (FIG. 2); format: cell-based, human
CT26 cells = assay: Proliferation of CT26 cells in the presence of PARP7 inhibitors (CellTiter-Glo, 4 days); format: cell-based, mouse; conditions: CellTiter-Glo (FIG. 5)
Protocol: Example F: Proliferation of CT26 cells in the presence of PARP7 inhibitors
CT26 cells were plated in a 384-well plate and allowed to adhere for several hours before being treated with Compound 18B. Cells were incubated with compound for 4 days prior to processing with CellTiter-Glo reagent (Promega). Luminescence was measured with a Perkin Elmer Envision and percent inhibition was calculated using the vehicle (DMSO) average as 0% inhibition. Non-linear regression analysis was performed using a 4 parameter (variable slope) fit in GraphPad Prism.

PARP7 [5] = target: T1, PARP7; assay: Inhibition of PARP7 (Table A-1); format: biochemical; conditions: comparison of separated isomers, see Table A-1
[6] = system: human NCI-H1373 lung cancer xenograft; assay: Tumor growth in human NCI-H1373 lung cancer xenograft (FIG. 7A); format: in vivo; conditions: once daily administration
NCI-H1963 = assay: Growth inhibition of cancer cell lines, 144 hours (CellTiter-Glo); format: cell-based; conditions: Homo sapiens, small cell lung carcinoma
Protocol: (§1) Example C: Inhibition of Cancer Cell Growth by Treatment with PARP7 Inhibitors
(§2) Table A-2 and Table A-3 (below) represents the concentration that causes 50% growth inhibition (GI50) in a panel of cancer cell lines with Compound 18B and Compound 561. Cells were plated into 384-well plates at a pre-specified density in fetal bovine serum-containing media. Cells were treated with compound or vehicle (DMSO) 24 hrs later, and a day zero plate was collected for analysis. Test compound plates were incubated continuously for 72 hrs (Table A-2) or 144 hours (Table A-3) cell growth was assessed using a luminescent cell viability assay (CellTiter-Glo, Promega). The GI50was determined by correcting for the cell count at time zero (time of treatment) and plotting data as percent growth relative to vehicle-treated cells.

HCC827 = assay: as above; format: cell-based; conditions: Homo sapiens, lung adenocarcinoma
Protocol: as §1, §2

HPAF-II = assay: as above; format: cell-based; conditions: Homo sapiens, pancreatic adenocarcinoma
Protocol: as §1, §2

NCI-H2066 = assay: as above; format: cell-based; conditions: squamous cell lung carcinoma
Protocol: as §1, §2

A101D = assay: as above; format: cell-based; conditions: Homo sapiens, melanoma
Protocol: as §1, §2

SF126 = assay: as above; format: cell-based; conditions: Homo sapiens, SF-126, glioblastoma multiforme
Protocol: as §1, §2

CFPAC-1 = assay: as above; format: cell-based; conditions: Homo sapiens, pancreatic ductal adenocarcinoma
Protocol: as §1, §2

NCI-H1648 = assay: as above; format: cell-based; conditions: Homo sapiens, lung adenocarcinoma
Protocol: as §1, §2

[7] = system: NCI-H1373 lung cancer xenograft; assay: Inhibition of tumor growth by oral dosing, human NCI-H1373 lung cancer xenograft; format: in vivo; conditions: NCI-H1373 xenograft in SCID mice
Text: (§3) Example H: Inhibition of Tumor Growth by Oral Dosing with a PARP7 Inhibitor
(§4) The effect of Compound 561 on tumor growth was studied in a human NCI-H1373 lung cancer xenograft and a murine CT26 colon cancer syngeneic model.
For the NCI-H1373 study, SCID mice were inoculated subcutaneously in the right flank with NCI-H1373 cells for tumor development. After 5 days of tumor growth, mice with 89-148 mm^3 tumors were randomized into treatment groups with mean tumor volumes of 121 mm^3. The treatments were started from the next day post randomization (defined randomization day as day 0) and were treated with vehicle (50% Labrasol) or Compound 561 (62.5, 125, 250, and 500 mg/kg) once a day for 28 days by oral gavage. Tumor volumes were determined by manual calipers every 2-3 days. Mean tumor volume and SEM are plotted. QD: once a day; PO: per oral administration. Statistical significance is calculated using two-way ANOVA followed by Bonferroni post-tests in which the treatment groups were compared to vehicle control (**** P<0.0001).

[8] = system: CT26 colon cancer syngeneic model; assay: Inhibition of tumor growth by oral dosing, murine CT26 colon cancer syngeneic model; format: in vivo; conditions: CT26 in BALB/c mice; BID 125-500 mg/kg or QD 500 mg/kg for 21 days; vs vehicle, P<0.0001 (FIG. 7B)
Text: as §3, §4
For the CT26 study, BALB/c mice were inoculated subcutaneously in the right flank with CT26 cells for tumor development. After 5 days of cell inoculation, mice with 36-79 mm^3 tumors were randomized into treatment groups with mean tumor volumes of 54 mm^3. The treatments were started from the next day post randomization (defined randomization day as day 0) and were treated with vehicle (25 or 50% Labrasol) or Compound 561 BID (2 times a day every 12 hours) at doses ranging from 125-500 mg/kg or QD (once a day) at 500 mg/kg for 21 days by oral gavage or needle subcutaneously. Tumor volumes were determined by manual calipers every 2-3 days. Mean tumor volume and SEM are plotted. BID: twice a day; PO: per oral administration; QD: once a day; SC: per subcutaneous administration. The first two doses for vehicle and Compound 561 500 mg/kg in the QD groups were delivered by subcutaneous injection. […] Statistical significance is calculated using two-way ANOVA followed by Bonferroni post-tests in which the treatment groups were compared to vehicle control (**** P<0.0001).

[9] = system: CT26 colon cancer syngeneic model; assay: Tumor growth in the murine syngeneic model CT26 (FIG. 6A-C, 7B); format: in vivo, mouse; conditions: once or twice daily administration, FIG. 7B

N#Cc1ccc(N2CCN(C(=O)c3cccc(OC[C@@H]4c5ccccc5CN4c4cn[nH]c(=O)c4C(F)(F)F)c3)CC2)nc1 (single isomer, unassigned) [Example 18 Isomer B]
interferon-beta (IFN-β) levels (interferon-beta (IFN-β) [1]): induction | IC50 (PARP7 [2]): < 0.1 µM | interferon-beta (IFN-β) levels (interferon-beta (IFN-β) [3]): induction | growth of NCI-H1373 lung cancer cells [4]: dose-dependent decrease in growth | proliferation in CT26 cells in vitro (CT26 cells): do not inhibit proliferation | relative potency of the enantiomers / diastereomers (PARP7 [5]): more potent enantiomer

C[C@@H](COCCC(=O)N1CCN(c2ncc(C(F)(F)F)cn2)CC1)Nc1cn[nH]c(=O)c1C(F)(F)F [Example 561, 5-[[(2S)-1-(3-oxo-3-[4-[5-(trifluoromethyl)pyrimidin-2-yl]piperazin-1-yl]propoxy)propan-2-yl]amino]-4-(trifluoromethyl)-2,3-dihydropyridazin-3-one]
tumor growth [6]: significantly reduces tumor growth | GI50 (NCI-H1963): ≥ 1 µM | GI50 (HCC827): < 0.1 µM | GI50 (HPAF-II): ≥ 1 µM | GI50 (NCI-H2066): ≥ 1 µM | GI50 (A101D): ≥ 1 µM | GI50 (SF126): ≥ 1 µM | GI50 (CFPAC-1): 0.1 to 1 µM | GI50 (NCI-H1648): ≥ 1 µM | tumor growth ([7]; 62.5, 125, 250 and 500 mg/kg once a day for 28 days by oral gavage, vs vehicle, P<0.0001 (FIG. 7A)): significantly reduces tumor growth | tumor regression ([7]; 62.5 to 500 mg/kg once a day for 28 days, all dose levels): complete tumor regression | tumor growth [8]: significantly reduces tumor growth | tumor growth [9]: significantly reduces tumor growth
